Measured values published in patent US10173991B2, “Sulfone amide linked benzothiazole inhibitors of endothelial lipase” (BRISTOL-MYERS SQUIBB COMPANY, priority 2014, dated 2019).
Read-outs that look alike come from different tables or passages of the source.

Target: Endothelial lipase (EL) (Homo sapiens (Human), UniProt Q9Y5X9)
Assay: Endothelial lipase (EL) enzymatic assay with fluorescent substrate A10070 in DMPG vesicles
Type: biochemical
Method in brief: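 Compounds were preincubated with enzyme for 30 min at 37° C before FRET-substrate vesicles (A10070 in DMPG, 0.11 mole fraction) were added. Reaction rates were obtained from the 300–900 sec slope of fluorescence at 490/530 nm.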

Chain of Endothelial lipase (EL) (Q9Y5X9 21-500): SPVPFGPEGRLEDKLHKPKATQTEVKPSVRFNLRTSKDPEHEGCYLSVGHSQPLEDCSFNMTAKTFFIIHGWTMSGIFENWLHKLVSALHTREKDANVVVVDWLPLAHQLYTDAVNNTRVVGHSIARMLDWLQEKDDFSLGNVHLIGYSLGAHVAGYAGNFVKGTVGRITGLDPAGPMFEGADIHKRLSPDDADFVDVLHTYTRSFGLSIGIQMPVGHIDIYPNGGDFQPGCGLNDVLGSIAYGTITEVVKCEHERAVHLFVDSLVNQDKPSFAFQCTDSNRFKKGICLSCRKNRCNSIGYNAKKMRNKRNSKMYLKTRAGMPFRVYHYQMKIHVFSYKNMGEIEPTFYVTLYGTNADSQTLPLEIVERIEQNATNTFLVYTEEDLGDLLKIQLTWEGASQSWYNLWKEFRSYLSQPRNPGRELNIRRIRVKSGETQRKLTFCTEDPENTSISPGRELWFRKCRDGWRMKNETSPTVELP

IC50 [nM] | IC50 (EL from conditioned media of HT-1080 cells, 30 min preincubation at 37° C.) [nM] | SMILES
13 |  | COCCS(=O)(=O)C(C(=O)NCC(=O)NC1CC1)c1nc2ccc(-c3cccc(N(C)C(=O)OC)c3)cc2s1 (centres unmarked) [Example 545, methyl N-{3-[2-({[(cyclopropyl-carbamoyl)methyl]carbamoyl}(2-methoxyethane-sulfonyl)methyl)-1,3-benzothiazol-6-yl]phenyl}-N-methylcarbamate]
6 |  | COC(=O)N(C)c1ccc(-c2ccc3nc(C(C(=O)NCC(=O)NC4CC4)S(=O)(=O)CCC(F)(F)F)sc3c2)cc1 (centres unmarked) [Example 24, methyl N-{4-[2-({[(cyclopropyl-carbamoyl)methyl]carbamoyl} (3,3,3-trifluoropropane-sulfonyl)methyl)-1,3-benzothiazol-6-yl]phenyl}-N-methylcarbamate]
15 |  | COCCS(=O)(=O)C(C(=O)NCC(=O)NC1CC1)c1nc2ccc(-c3ccncc3Cl)cc2s1 (centres unmarked) [Example 288, 2-[6-(3-chloropyridin-4-yl)-1,3-benzothiazol-2-yl]-N-[(cyclopropyl-carbamoyl)methyl]-2-(2-methoxyethane-sulfonyl)acetamide]
82 |  | Cc1ncc(-c2cc(F)c3nc(C(C(=O)NCC(=O)NC4CC4)S(=O)(=O)N(C)C)sc3c2)cn1 (centres unmarked) [Example 491, N-[(cyclopropyl-carbamoyl)methyl]-2-(dimethyl-sulfamoyl)-2-[4-fluoro-6-(2-methylpyrimidin-5-yl)-1,3-benzothiazol-2-yl]acetamide]
3 |  | CS(=O)(=O)C(C(=O)NCC(=O)NC1CC1)c1nc2cc(F)c(-c3ccc(-c4ccccc4)nc3)cc2s1 (centres unmarked) [Example 203, N-[(cyclopropyl-carbamoyl)methyl]-2-[5-fluoro-6-(6-phenylpyridin-3-yl)-1,3-benzothiazol-2-yl]-2-methanesulfonyl-acetamide]
16 |  | O=C(CNC(=O)C(c1nc2ccc(-c3ccc(F)nc3)cc2s1)S(=O)(=O)Cc1ccc(C(F)(F)F)cc1)NC1CC1 (centres unmarked) [Example 512, N-[(cyclopropyl-carbamoyl)methyl]-2-[6-(6-fluoropyridin-3-yl)-1,3-benzothiazol-2-yl]-2-{[4-(trifluoromethyl)phenyl]methanesulfonyl} acetamide]
5 |  | COCCOC(=O)Nc1ccc(-c2cc3sc(C(C(=O)NCC(=O)NC4CC4)S(=O)(=O)CCOC)nc3cc2F)cn1 (centres unmarked) [Example 37, 2-methoxyethyl N-{5-[2-({[(cyclopropyl-carbamoyl)methyl]carbamoyl}(2-methoxyethane-sulfonyl)methyl)-5-fluoro-1,3-benzothiazol-6-yl]pyridin-2-yl} carbamate]
10 |  | COCCS(=O)(=O)C(C(=O)NCC(=O)NC1CC1)c1nc2cc(-c3cnc(C4CC4)nc3)c(F)cc2s1 (centres unmarked) [Example 348, N-[(cyclopropyl-carbamoyl)methyl]-2-[5-(2-cyclopropyl-pyrimidin-5-yl)-6-fluoro-1,3-benzothiazol-2-yl]-2-(2-methoxyethane-sulfonyl)acetamide]
29 |  | CC(C)S(=O)(=O)C(C(=O)NCC(=O)NC1CC1)c1nc2cc(F)c(-c3ccc(C#N)nc3)cc2s1 (centres unmarked) [Example 249, 2-[6-(6-cyanopyridin-3-yl)-5-fluoro-1,3-benzothiazol-2-yl]-N-[(cyclopropyl-carbamoyl)methyl]-2-(propane-2-sulfonyl)acetamide]
38 |  | COCCS(=O)(=O)C(C(=O)NCC(=O)NC1CC1)c1nc2cc(-c3ccc(C(=O)N4CCOCC4)cc3)ccc2s1 (centres unmarked) [Example 337, N-[(cyclopropyl-carbamoyl)methyl]-2-(2-methoxyethane-sulfonyl)-2-{5-[4-(morpholine-4-arbonyl)phenyl]-1,3-benzothiazol-2-yl}acetamide]
1 |  | CC(C)OC(=O)Nc1ccc(-c2cc3sc(C(C(=O)NCC(=O)NC4CC4)S(C)(=O)=O)nc3cc2F)cc1 (centres unmarked) [Example 539, propan-2-yl N-{4-[2-({[(cyclopropyl-carbamoyl)methyl]carbamoyl} (methanesulfonyl)methyl)-5-fluoro-1,3-benzothiazol-6-yl]phenyl} carbamate]
 | 3 | CS(=O)(=O)C(C(=O)NCC(=O)NC1CC1)c1nc2cc(F)c(-c3ccc(NC(=O)OCc4ccccc4)cc3)cc2s1 (centres unmarked) [Example 1, Benzyl N-{4-[2-({[(cyclopropylcarbamoyl)methyl]carbamoyl}(methanesulfonyl)methyl)-5-fluoro-1,3-benzothiazol-6-yl]phenyl}carbamate]
2 |  | COC(=O)Nc1ccc(-c2cc(F)c3nc(C(C(=O)NCC(=O)NC4CC4)S(=O)(=O)N(C)C)sc3c2)cc1 (centres unmarked) [Example 496, methyl N-{4-[2-({[(cyclopropyl-carbamoyl)methyl]carbamoyl} (dimethyl-sulfamoyl)methyl)-4-fluoro-1,3-benzothiazol-6-yl]phenyl} carbamate]
55 |  | COCCS(=O)(=O)C(C(=O)NCC(=O)NCCOC(C)C)c1nc2cc(-c3cnc(C)nc3)c(F)cc2s1 (centres unmarked) [Example 356, 2-[6-fluoro-5-(2-methylpyrimidin-5-yl)-1,3-benzothiazol-2-yl]-2-(2-methoxyethane-sulfonyl)-N-({[2-(propan-2-yloxy)ethyl]carbamoyl}methyl)acetamide]
24 |  | O=C(CNC(=O)C(c1nc2ccc(-c3ccc(F)nc3)cc2s1)S(=O)(=O)c1ccc(F)cc1)NC1CC1 (centres unmarked) [Example 457, N-[(cyclopropyl-carbamoyl)methyl]-2-(4-fluorobenzene-sulfonyl)-2-[6-(6-fluoropyridin-3-yl)-1,3-benzothiazol-2-yl]acetamide]
45 |  | CC(C)OCCNC(=O)CNC(=O)C(c1nc2ccc(-c3ccn(C)c(=O)c3)cc2s1)S(=O)(=O)c1ccc(F)cc1 (centres unmarked) [Example 464, 2-(4-fluorobenzene-sulfonyl)-2-[6-(1-methyl-2-oxo-1,2-dihydropyridin-4-yl)-1,3-benzothiazol-2-yl]-N-({[2-(propan-2-yloxy)ethyl]carbamoyl}methyl)acetamide]
1 |  | COCCS(=O)(=O)C(C(=O)NCC(=O)NC1CC1)c1nc2cc(F)c(-c3ccc(NC(=O)OCc4ccccc4)nc3)cc2s1 (centres unmarked) [Example 551, benzyl N-{5-[2-({[(cyclopropyl-carbamoyl)methyl]carbamoyl}(2-methoxyethane-sulfonyl)methyl)-5-fluoro-1,3-benzothiazol-6-yl]pyridin-2-yl} carbamate]
14 |  | O=C(CNC(=O)C(c1nc2ccc(-c3ccc(F)nc3)cc2s1)S(=O)(=O)c1ccccc1)NC1CC1 (centres unmarked) [Example 434, 2-(benzenesulfonyl)-N-[(cyclopropyl-carbamoyl)methyl]-2-[6-(6-fluoropyridin-3-yl)-1,3-benzothiazol-2-yl] acetamide]
20 |  | COCCS(=O)(=O)C(C(=O)NCC(=O)NC1CC1)c1nc2cc(C(F)(F)F)c(-c3ccc(C(=O)N4CCOCC4)cc3)cc2s1 (centres unmarked) [Example 166, N-[(cyclopropyl-carbamoyl)methyl]-2-(2-methoxyethane-sulfonyl)-2-{6-[4-(morpholine-4-arbonyl)phenyl]-5-(trifluoromethyl)-1,3-benzothiazol-2-yl}acetamide]
5 |  | CC(C)S(=O)(=O)C(C(=O)NCC(=O)NC1CC1)c1nc2cc(-c3ccc4c(=O)n(C)ccc4c3)c(F)cc2s1 (centres unmarked) [Example 267, N-[(cyclopropyl-carbamoyl)methyl]-2-[6-fluoro-5-(2-methyl-1-oxo-1,2-dihydro-isoquinolin-6-yl)-1,3-benzothiazol-2-yl]-2-(propane-2-sulfonyl) acetamide]
